Measured values taken from patent US20170056367A1, “PHARMACEUTICAL COMPOSITIONS FOR INHIBITING THE OSTEOCLAST DIFFERENTIATION COMPRISING EUPATILIN” (OsteoNeuroGen CO., LTD, priority 2015, published 2017).

Tests used:
[1] = test system: TRAP, OSCAR, Integrin av, DC-STAMP, integrin b3, and OC-STAMP; assay: Osteoclast differentiation marker gene levels by real-time PCR; type: cell-based, mouse; conditions: 50 μM eupatilin, MBMC differentiation, FIG. 2
Experimental: During the differentiation of MBMC into osteoclasts in the presence of 50 μM eupatilin, the levels of osteoclast differentiation marker genes were measured by real-time PCR.

osteoclasts = assay: RANKL-mediated bone resorption measured using dentin; type: cell-based
Experimental: Effects of eupatilin on RANKL-mediated bone-resorption were measured using dentin.

[2] = test system: human peripheral blood mononucleated cells (PBMC); assay: Differentiation of human PBMC into osteoclasts; type: cell-based; conditions: 50 μM, FIG. 5
From the text: Effects of eupatilin on the differentiation of human PBMC into osteoclasts were observed.

[3] = test system: mouse bone marrow cells (MBMC); assay: Differentiation of mouse bone marrow cells (MBMC) into osteoclasts with M-CSF and RANKL; type: cell-based
Experimental: Incubation with M-CSF (macrophage-colony stimulating factor) and RANK (receptor activator of NFκB) ligand (RANKL) induced mouse bone marrow cells (MBMC) to differentiate into osteoclasts during which eupatilin was used at various concentrations under monitoring.

[4] = test system: RANK-mediated NF-kB activation; assay: NF-kB-luciferase assay; type: cell-based; conditions: FIG. 3D
Experimental: Retroviral overexpression of catalytically active IKKb or Akt induced partial formation of TRP^+ osteoclasts (FIGS. 3B and 3C). An NF-kB-luciferase assay was conducted to examine whether the RANK-mediated NF-kB activation was modulated by eupatilin.

[5] = test system: mouse bone marrow cells (MBMC); assay: Cytotoxicity of eupatilin (FIG. 1D); type: cell-based; conditions: at the concentration (50 μM)
GSK3b = assay: Osteoclast formation upon overexpression of GSK3b; type: cell-based; conditions: FIGS. 4A and 4B
IkB, Akt, and GSK3b = assay: Phosphorylation of IkB, Akt and GSK3b during differentiation of MBMC into osteoclasts (gel electrophoresis); type: cell-based, mouse; conditions: compared to control groups, FIG. 3A
[6] = test system: Ovariectomized mice (OVX); assay: Ovariectomized mice (OVX) model of menopausal osteoporosis; type: in vivo, mouse; conditions: 50 μM eupatilin, FIG. 8
[7] = test system: LPS-induced osteoporosis mouse models; assay: LPS-induced osteoporosis model; type: in vivo
[8] = test system: Osteoblasts differentiated from mesenchymal stem cells; assay: ALP activity of osteoblasts differentiated from mesenchymal stem cells; type: cell-based, mouse; conditions: FIG. 9
Experimental: Osteoblasts differentiated from mesenchymal stem cells were measured for ALP activity in the presence of eupatilin.

## COc1ccc(-c2cc(=O)c3c(O)c(OC)c(O)cc3o2)cc1OC [eupatilin, 5,7-dihydroxy-3,4,6-trimethoxyflavone]
[1]
  levels of the markers TRAP, OSCAR, Integrin av, DC-STAMP, integrin b3, and OC-STAMP: significantly reduced
osteoclasts; dentin, FIG. 6B
  expression of Pit: reduced
osteoclasts; osteoclasts differentiated by RANK signaling, FIG. 6A
  expression of F-actin for the formation of osteoclast actin rings: remarkably suppressed
osteoclasts; time-dependent manner, FIG. 6
  expression of Cathepsin K: significantly decreasing
[2]
  expression of c-Fos, NFATc1, p-Akt, p-GSK3b, and p-IkB: significantly reduce
  formation of TRP^+ osteoclasts: significantly reduce
[3]; 50 μM eupatilin, M-CSF and RANKL, FIG. 1A
  osteoclast differentiation: completely suppressed
[3]; FIG. 1C
  F-actin formation in MNCs (immunofluorescence): significantly reduced
[3]; various concentrations, FIG. 1B
  formation of TRP^+ multinucleated osteoclasts (MNCs): suppressed the formation of TRP^+ multinucleated osteoclasts (MNCs) in a dose-dependent manner
[4]
  RANK-mediated NF-kB activation: inhibit
[5]
  cytotoxicity: no cytotoxicity
GSK3b
  MNCs in the presence of eupatilin upon overexpression of GSK3b: a significant quantity of MNCs was observed
IkB, Akt, and GSK3b
  phosphorylation levels of IkB, Akt, and GSK3b: significantly reduced
[6]
  bone density loss (CT): significantly reduced
[7]; 50 μM eupatilin, LPS intraperitoneally, FIG. 7A
  LPS-induced osteoporosis (bone density by CT): significantly reduced
[7]; LPS model, bottom panel of FIG. 7
  H&E and TRAP staining: promote osteanagenesis and inhibit osteoclast differentiation
[7]; LPS or LPS+ eupatilin, FIGS. 7B to 7E
  bone density: improve bone density
[8]; 50 μM
  reduction of the activity of osteoblasts (ALP activity): 50%
[8]; up to 25 μM
  activity of osteoblasts (ALP activity): did not influence
